Source: paper PMC11191095, “QSAR Reveals Decreased Lipophilicity of Polar Residues Determines the Selectivity of Antimicrobial Peptide Activity” (ACS Omega, 2024)
Where a SMILES comes first, the peptide text is derived from it.

Assays:
Assay in all cases: microbe, parasite or virus in culture
[1] = system: E. coli LEC001; assay type: cell-based, Escherichia coli
Method: (§1) Antimicrobial activity was evaluated against a panel of 18 pathogens consisting of eight Gram-negative strains (E. coli NCTC 12923, E. coli LEC001, Pseudomonas aeruginosa PAO1, P. aeruginosa NCTC 13437, Acinetobacter baumannii ATCC 17978, A. baumannii AYE, Klebsiella pneumoniae M6, K. pneumoniae NCTC 13368), four Gram-positive strains (Staphylococcus aureus ATCC 9144, S. aureus NCTC 13616, S. aureus USA300, S. aureus 1199B) and six fungi (Candida auris TDG 1912, C. albicans NCPF 8018, C. krusei NCPF 3876, C. tropicalis NCPF 8760, and C. parapsilosis NCPF 3209). Pathogens were grown in noncation adjusted Mueller Hinton broth (MHB, for bacteria) or Roswell Park Memorial Institute (RPMI 1640) + 2% glucose (for fungi) at 37 °C with 180 rpm shaking and maintained on solid media (tryptic soy agar for bacteria and Sabouraud dextrose agar for fungi). For an antibiogram, see Suppl.
(§2) The 46 peptides were serially diluted (128 to 2 μg/mL) in media down polypropylene 96-well plates. Bacteria or fungi, diluted from an overnight culture to an OD600 of 0.01, were added to the serially diluted peptides at a 1:1 ratio resulting in a starting cell density of ∼5 × 10^5 CFU/mL. Plates were incubated at 37 °C for 20 h, and the optical density was determined spectrophotometrically at 600 nm. Minimum inhibition concentrations (MICs) were determined from a minimum of three biological repeats and are reported in μg/mL as well as μM. […] The MIC50 or MIC90 is defined as the lowest peptide concentration that results in 50% or 90% growth inhibition over a 20 h treatment period, respectively.

[2] = system: E. coli NCTC 12923; assay type: cell-based, Escherichia coli
Method: as §1, §2

[3] = system: P. aeruginosa NCTC 13437; assay type: cell-based, Pseudomonas aeruginosa
Method: as §1, §2

[4] = system: A. baumannii ATCC 17978; assay type: cell-based, Acinetobacter baumannii
Method: as §1, §2

[5] = system: A. baumannii AYE; assay type: cell-based, Acinetobacter baumannii; details: 20 h
Method: as §1, §2

[6] = system: K. pneumoniae M6; assay type: cell-based, Klebsiella pneumoniae
Method: as §1, §2

[7] = system: K. pneumoniae NCTC 13368; assay type: cell-based, Klebsiella pneumoniae
Method: as §1, §2

[8] = system: S. aureus (MRSA) NCTC 13616; assay type: cell-based, Staphylococcus aureus
Method: as §1, §2

[9] = system: S. aureus (MRSA) USA300; assay type: cell-based, Staphylococcus aureus; details: USA300, 20 h
Method: as §1, §2

[10] = system: S. aureus (MSSA) ATCC 9144; assay type: cell-based, Staphylococcus aureus; details: ATCC 9144, 20 h
Method: as §1, §2

[11] = system: C. auris TDG 1912; assay type: cell-based, Candida auris; details: TDG 1912, 20 h
Method: as §1, §2

[12] = system: C. albicans NCPF 3281; assay type: cell-based; details: NCPF 3281, 20 h
Method: as §1, §2

[13] = system: C. glabrata NCPF 8018; assay type: cell-based; details: NCPF 8018, 20 h
Method: as §1, §2

[14] = system: C. krusei NCPF 3876; assay type: cell-based; details: NCPF 3876, 20 h
Method: as §1, §2

[15] = system: C. parapsilosis NCPF 3209; assay type: cell-based; details: NCPF 3209, 20 h
Method: as §1, §2

[16] = system: C. tropicalis NCPF 8760; assay type: cell-based; details: NCPF 8760, 20 h
Method: as §1, §2

[17] = system: S. aureus (MRSA) 1199B; assay type: cell-based, Staphylococcus aureus; details: S. aureus (MRSA) 1199B (R); shown in µM
Method: as §1, §2

[18] = system: P. aeruginosa PAO1; assay type: cell-based, Pseudomonas aeruginosa
Method: as §1, §2

CC[C@H](C)[C@H](NC(=O)[C@H](CCCCN)NC(=O)[C@H](CC(C)C)NC(=O)CNC(=O)[C@H](C)NC(=O)[C@H](CCCCN)NC(=O)[C@H](CC(C)C)NC(=O)[C@H](C)NC(=O)[C@H](CCCCN)NC(=O)CNC(=O)[C@H](CC(C)C)NC(=O)[C@H](Cc1ccccc1)NC(=O)[C@H](CO)NC(=O)[C@H](C)NC(=O)[C@H](CC(C)C)NC(=O)CN)C(=O)NCC(=O)N[C@@H](CO)C(=O)N[C@@H](Cc1c[nH]cn1)C(=O)N[C@@H](CC(C)C)C(=O)N[C@@H](CC(C)C)C(=O)NCC(=O)NCC(=O)N[C@@H](C)C(=O)N1CCC[C@H]1C(=O)N[C@@H](CCC(N)=O)C(=O)O [CPF-P2] (H-GLASFLGKALKAGLKIGSHLLGGAPQ-OH)
Modal MIC ([1]; LEC001, 20 h): 5.8 µM | Modal MIC ([2]; NCTC 12923, 20 h): 2.9 µM | Modal MIC ([3]; NCTC 13437, 20 h): 46 µM | Modal MIC ([4]; ATCC 17978, 20 h): 1.4 µM | Modal MIC ([5]; AYE): 2.9 µM | Modal MIC ([6]; M6, 20 h): 46 µM | Modal MIC ([7]; NCTC 13368, 20 h): 46 µM | Modal MIC ([8]; NCTC 13616, 20 h): 1.4 µM | Modal MIC [9]: 2.9 µM | Modal MIC [10]: 1.4 µM | Modal MIC50 [11]: > 46 µM | Modal MIC90 [11]: > 46 µM | Modal MIC50 [12]: > 46 µM | Modal MIC90 [12]: > 46 µM | Modal MIC50 [13]: > 46 µM | Modal MIC90 [13]: > 46 µM | Modal MIC50 [14]: 23 µM | Modal MIC90 [14]: 23 µM | Modal MIC50 [15]: > 46 µM | Modal MIC90 [15]: > 46 µM | Modal MIC50 [16]: 5.8 µM | Modal MIC90 [16]: 5.8 µM

CC[C@H](C)[C@H](NC(=O)[C@H](CCCCN)NC(=O)[C@H](CC(C)C)NC(=O)CNC(=O)[C@H](C)NC(=O)[C@H](CCCCN)NC(=O)[C@H](CC(C)C)NC(=O)[C@H](C)NC(=O)[C@H](CCCCN)NC(=O)CNC(=O)[C@H](CC(C)C)NC(=O)[C@@H](N)Cc1ccccc1)C(=O)NCC(=O)N[C@@H](CO)C(=O)N[C@@H](Cc1c[nH]cn1)C(=O)N[C@@H](CC(C)C)C(N)=O [CPF-P2a] (H-FLGKALKAGLKIGSHL-NH2)
Modal MIC ([1]; LEC001, 20 h): 37.1 µM | Modal MIC ([2]; NCTC 12923, 20 h): 18.6 µM | Modal MIC ([4]; ATCC 17978, 20 h): 18.6 µM | Modal MIC ([5]; AYE): 37.1 µM | Modal MIC [17]: > 74 µM | Modal MIC50 [11]: > 74 µM | Modal MIC90 [11]: > 74 µM | Modal MIC50 [12]: > 74 µM | Modal MIC90 [12]: > 74 µM | Modal MIC50 [13]: > 74 µM | Modal MIC90 [13]: > 74 µM | Modal MIC50 [14]: > 74 µM | Modal MIC90 [14]: > 74 µM | Modal MIC50 [15]: > 74 µM | Modal MIC90 [15]: > 74 µM | Modal MIC50 [16]: > 74 µM | Modal MIC90 [16]: > 74 µM

CC[C@H](C)[C@H](NC(=O)CNC(=O)[C@H](CCCNC(=N)N)NC(=O)[C@@H](N)Cc1c[nH]c2ccccc12)C(=O)N[C@@H](CCCNC(=N)N)C(=O)NCC(=O)N[C@@H](Cc1ccc(O)cc1)C(=O)N[C@@H](CCCCN)C(=O)NCC(=O)NCC(=O)N[C@@H](Cc1ccc(O)cc1)C(=O)N[C@H](C(=O)NCC(=O)N[C@@H](CCCNC(=N)N)C(=O)N[C@@H](Cc1ccccc1)C(=O)N[C@@H](CCCCN)C(=O)N[C@@H](CCC(N)=O)C(=O)N[C@H](C(=O)N[C@@H](CCCCN)C(=O)N[C@@H](Cc1ccc(O)cc1)C(N)=O)[C@@H](C)O)[C@@H](C)O [W-OmB-Ca] (H-WRGIRGYKGGYTGRFKQTKY-NH2)
Modal MIC ([2]; NCTC 12923, 20 h): 52.5 µM | Modal MIC ([4]; ATCC 17978, 20 h): 26.2 µM | Modal MIC ([5]; AYE): 13.1 µM | Modal MIC [10]: 52.5 µM | Modal MIC50 [12]: > 52.5 µM | Modal MIC90 [12]: > 52.5 µM | Modal MIC50 [13]: > 52.5 µM | Modal MIC90 [13]: > 52.5 µM | Modal MIC50 [14]: > 52.5 µM | Modal MIC90 [14]: > 52.5 µM | Modal MIC50 [15]: > 52.5 µM | Modal MIC90 [15]: > 52.5 µM | Modal MIC50 [16]: > 52.5 µM | Modal MIC90 [16]: > 52.5 µM

CC[C@H](C)[C@H](NC(=O)CNC(=O)[C@H](CO)NC(=O)[C@@H](N)Cc1c[nH]c2ccccc12)C(=O)N[C@@H](CCCNC(=N)N)C(=O)NCC(=O)N[C@@H](Cc1ccc(O)cc1)C(=O)N[C@@H](CCCCN)C(=O)NCC(=O)NCC(=O)N[C@@H](Cc1ccc(O)cc1)C(=O)N[C@@H](CCCCN)C(=O)NCC(=O)N[C@@H](CC(C)C)C(=O)N[C@@H](Cc1ccccc1)C(=O)N[C@@H](CCCCN)C(=O)N[C@@H](CCC(N)=O)C(=O)N[C@H](C(=O)N[C@@H](CC(N)=O)C(=O)N[C@@H](Cc1ccc(O)cc1)C(N)=O)[C@@H](C)O [W-OmC-Ca] (H-WSGIRGYKGGYKGLFKQTNY-NH2)
Modal MIC ([2]; NCTC 12923, 20 h): 54.3 µM | Modal MIC ([4]; ATCC 17978, 20 h): 54.3 µM | Modal MIC ([5]; AYE): 54.3 µM | Modal MIC [10]: 54.3 µM | Modal MIC50 [12]: > 54.3 µM | Modal MIC90 [12]: > 54.3 µM | Modal MIC50 [13]: > 54.3 µM | Modal MIC90 [13]: > 54.3 µM | Modal MIC50 [14]: > 54.3 µM | Modal MIC90 [14]: > 54.3 µM | Modal MIC50 [15]: > 54.3 µM | Modal MIC90 [15]: > 54.3 µM | Modal MIC50 [16]: > 54.3 µM | Modal MIC90 [16]: > 54.3 µM

CC[C@H](C)[C@H](NC(=O)[C@H](CCCCN)NC(=O)[C@H](CO)NC(=O)[C@H](C)NC(=O)[C@H](Cc1c[nH]c2ccccc12)NC(=O)CN)C(=O)NCC(=O)N[C@@H](CCC(N)=O)C(=O)N[C@H](C(=O)N[C@@H](CC(C)C)C(=O)NCC(=O)N[C@@H](CCCCN)C(=O)N[C@H](C(=O)N[C@@H](C)C(=O)N[C@@H](CCCCN)C(=O)N[C@H](C(=O)NCC(=O)N[C@@H](CC(C)C)C(=O)N[C@@H](CCCCN)C(=O)N[C@@H](CCC(=O)O)C(=O)N[C@@H](CC(C)C)C(=O)N[C@H](C(=O)N[C@@H](CCC(N)=O)C(=O)N1CCC[C@H]1C(=O)N[C@@H](CCCCN)C(=O)O)[C@@H](C)CC)C(C)C)[C@@H](C)CC)[C@@H](C)O [XPF] (H-GWASKIGQTLGKIAKVGLKELIQPK-OH)
Modal MIC ([1]; LEC001, 20 h): 1.5 µM | Modal MIC ([2]; NCTC 12923, 20 h): 1.5 µM | Modal MIC ([3]; NCTC 13437, 20 h): 46.5 µM | Modal MIC ([18]; PAO1, 20 h): 46.5 µM | Modal MIC ([4]; ATCC 17978, 20 h): 1.5 µM | Modal MIC ([5]; AYE): 1.5 µM | Modal MIC ([6]; M6, 20 h): 23.2 µM | Modal MIC ([7]; NCTC 13368, 20 h): 11.6 µM | Modal MIC ([8]; NCTC 13616, 20 h): 46.5 µM | Modal MIC [9]: 46.5 µM | Modal MIC [10]: 11.6 µM | Modal MIC50 [12]: > 46.5 µM | Modal MIC90 [12]: > 46.5 µM | Modal MIC50 [13]: > 46.5 µM | Modal MIC90 [13]: > 46.5 µM | Modal MIC50 [14]: > 46.5 µM | Modal MIC90 [14]: > 46.5 µM | Modal MIC50 [15]: > 46.5 µM | Modal MIC90 [15]: > 46.5 µM | Modal MIC50 [16]: 11.6 µM | Modal MIC90 [16]: 11.6 µM

Colistin [reference compound]
Modal MIC ([1]; E. coli LEC001 (R), MHB, 37 °C, 20 h, OD600, min. three biological repeats): 2 µg/mL | Modal MIC ([2]; E. coli NCTC 12923 (S), MHB, ~5×10^5 CFU/mL, 37 °C, 20 h, OD600, min. three biological repeats): 0.0625 µg/mL | Modal MIC ([3]; P. aeruginosa NCTC 13437 (R), MHB, 37 °C, 20 h, OD600, min. three biological repeats): 4 µg/mL | Modal MIC ([18]; P. aeruginosa PAO1 (S), MHB, 37 °C, 20 h, OD600, min. three biological repeats): 2 µg/mL | Modal MIC ([4]; A. baumannii ATCC 17978 (S), MHB, 37 °C, 20 h, OD600, min. three biological repeats): 1 µg/mL | Modal MIC ([5]; A. baumannii AYE (R), MHB, 37 °C, OD600, min. three biological repeats): 1 µg/mL | Modal MIC ([6]; K. pneumoniae M6 (S), MHB, 37 °C, 20 h, OD600, min. three biological repeats): 2 µg/mL | Modal MIC ([7]; K. pneumoniae NCTC 13368 (R), MHB, 37 °C, 20 h, OD600, min. three biological repeats): 1 µg/mL | Modal MIC ([8]; S. aureus (MRSA) NCTC 13616 (R), MHB, 37 °C, 20 h, OD600, min. three biological repeats): > 128 µg/mL
